Data from publication PMC6300691, “Enhancement of Heat Stability and Kinetic Parameters of the Maize Endosperm ADP-Glucose Pyrophosphorylase by Mutagenesis of Amino Acids in the Small Subunit With High B Factors” (Frontiers in Plant Science, 2018).

Experiments:
wt (SH2-WT/BT2-WT) = wt (SH2-WT/BT2-WT) (Zea mays, UniProt P55241+Q947C0)
Description: All reactions were developed as above. The activation constant was fitted to the following equation, V = Vmin + Vmax^∗X/(Ka + X), since several enzymes had appreciable activity in the absence of activator. Here, Vmin is the velocity in the absence of activator and Vmax is the change in activity from Vmin to the total velocity, X is the activator concentration, Ka is the activation constant. All linear regressions were carried out using the software program Prism (GraphPad, San Diego, CA, United States).

MP + SH2-E = system: T1, MP + SH2-E; assay: Initial-rate assay without 3-PGA, ATP and G-1-P both varied (0.01-10 mM and 0.1-25 mM), global fit to a sequential mechanism.; assay type: biochemical; details: read-out: ATP Km (absence of 3-PGA)
T1 construct: chimeric small subunit MP (maize 198 / potato 277 amino acids) with SH2-E
Source text: (§1) Activity in the absence of the activator 3PGA was examined. While 3PGA is a noted activator for plant AGPase, the mechanism of activation differs for the various AGPases. […] Thus, the term “activation fold” in the literature is merely an activity reported at single fixed substrate concentrations.
(§2) The small subunit mutant, MP, contains the first 198 amino acids of the small subunit of the maize endosperm enzyme and the last 277 amino acids from the potato tuber enzyme resulting in thirty-three amino acid sites that differ from the maize endosperm enzyme ([Cross et al., 2004]).

SH2-E = biological target: T2, SH2-E (Zea mays, UniProt P55241+Q947C0, N131R/T142F/A160T/Q261S/A396S/V416I/C424V/S444A); assay: as above; assay type: biochemical; details: read-out: ATP Km (absence of 3-PGA)
T2 construct: SH2-E with wild type BT2 (SH2-E/BT2-WT), E. coli, purified
T2 sequence (Q947C0 1-475): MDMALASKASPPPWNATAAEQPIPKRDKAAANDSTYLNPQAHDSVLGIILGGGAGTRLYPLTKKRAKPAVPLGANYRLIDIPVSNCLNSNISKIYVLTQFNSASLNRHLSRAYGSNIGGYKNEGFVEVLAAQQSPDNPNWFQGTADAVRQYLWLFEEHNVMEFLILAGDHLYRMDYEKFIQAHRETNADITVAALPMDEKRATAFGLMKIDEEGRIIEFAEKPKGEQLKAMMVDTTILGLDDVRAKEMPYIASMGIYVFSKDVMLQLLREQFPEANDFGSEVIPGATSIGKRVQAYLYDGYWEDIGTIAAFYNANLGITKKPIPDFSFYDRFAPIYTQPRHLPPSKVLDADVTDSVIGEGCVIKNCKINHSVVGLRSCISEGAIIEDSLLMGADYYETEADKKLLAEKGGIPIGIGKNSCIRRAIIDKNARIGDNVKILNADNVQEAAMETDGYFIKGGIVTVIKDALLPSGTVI
T2 sequence (P55241 46-516 N131R/T142F/A160T/Q261S/A396S/V416I/C424V/S444A): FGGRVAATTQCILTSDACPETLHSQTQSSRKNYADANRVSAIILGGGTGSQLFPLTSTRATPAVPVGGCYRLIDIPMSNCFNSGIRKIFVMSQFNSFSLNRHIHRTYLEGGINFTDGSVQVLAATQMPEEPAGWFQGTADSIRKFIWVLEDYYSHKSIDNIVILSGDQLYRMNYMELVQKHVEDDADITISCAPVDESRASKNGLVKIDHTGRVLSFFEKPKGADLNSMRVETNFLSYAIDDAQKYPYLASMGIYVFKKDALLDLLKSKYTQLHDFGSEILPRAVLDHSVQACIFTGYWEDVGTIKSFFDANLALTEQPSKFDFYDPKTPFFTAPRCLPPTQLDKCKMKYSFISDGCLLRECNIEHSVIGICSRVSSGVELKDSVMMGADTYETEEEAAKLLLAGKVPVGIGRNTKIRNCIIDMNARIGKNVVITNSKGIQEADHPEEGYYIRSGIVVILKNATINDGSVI
Source text: as §1, §2

SH2-ISM = biological target: T3, SH2-ISM (Zea mays, UniProt P55241+Q947C0, Q96G/D161G/A443R); assay: Pi inhibition study without 3-PGA, ATP varied (0.1-3 mM) at fixed Pi levels (10-30 mM) and sub-saturating G-1-P (1 mM), fit to mixed-type inhibition equations.; assay type: biochemical; details: read-out: Km (mM), varied substrate ATP, Pi inhibition in the absence of 3-PGA
T3 construct: SH2-ISM with wild type BT2 (SH2-ISM/BT2-WT), E. coli, purified
T3 sequence (Q947C0 1-475): T2 sequence (Q947C0 1-475)
T3 sequence (P55241 46-516 Q96G/D161G/A443R): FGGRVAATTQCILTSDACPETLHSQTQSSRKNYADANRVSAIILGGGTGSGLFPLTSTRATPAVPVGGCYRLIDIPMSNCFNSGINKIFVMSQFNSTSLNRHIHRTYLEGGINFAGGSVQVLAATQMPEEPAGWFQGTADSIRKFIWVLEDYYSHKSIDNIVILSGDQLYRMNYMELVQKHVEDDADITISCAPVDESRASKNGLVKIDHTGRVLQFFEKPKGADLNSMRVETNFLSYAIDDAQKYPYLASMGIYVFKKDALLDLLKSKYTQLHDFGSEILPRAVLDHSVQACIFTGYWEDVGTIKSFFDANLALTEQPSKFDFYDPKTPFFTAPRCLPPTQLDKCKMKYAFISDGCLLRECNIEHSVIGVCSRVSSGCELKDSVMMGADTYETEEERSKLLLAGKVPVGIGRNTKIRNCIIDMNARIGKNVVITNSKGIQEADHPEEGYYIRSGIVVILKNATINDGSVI
Description: Pi inhibition was carried out in both the presence and absence of 3-PGA with the Pi and substrate concentrations listed below.
Pi inhibition patterns in the presence and absence of 3PGA were also determined. Pi inhibition patterns were obtained by varying one substrate at several fixed concentrations of Pi, while holding the co-substrate at constant sub-saturating levels.

Chain of wt (SH2-WT/BT2-WT) (P55241 46-516, one chain of several): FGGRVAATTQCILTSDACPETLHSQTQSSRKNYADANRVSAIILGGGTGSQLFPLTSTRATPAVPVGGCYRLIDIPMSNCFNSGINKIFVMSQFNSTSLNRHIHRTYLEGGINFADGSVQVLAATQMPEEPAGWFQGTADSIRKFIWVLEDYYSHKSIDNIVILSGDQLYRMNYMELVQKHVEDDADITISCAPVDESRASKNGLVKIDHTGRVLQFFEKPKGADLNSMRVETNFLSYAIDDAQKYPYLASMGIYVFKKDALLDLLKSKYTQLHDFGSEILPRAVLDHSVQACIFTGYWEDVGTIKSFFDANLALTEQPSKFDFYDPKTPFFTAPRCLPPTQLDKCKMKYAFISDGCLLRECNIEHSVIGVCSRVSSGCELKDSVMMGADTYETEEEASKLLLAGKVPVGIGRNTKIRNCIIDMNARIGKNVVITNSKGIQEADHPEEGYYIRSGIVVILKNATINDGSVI

| Structure (SMILES) | 3-PGA Ka (activation constant) (wt (SH2-WT/BT2-WT)) | Km (MP + SH2-E) [µM] | Km (SH2-E) [µM] | Km (SH2-ISM) [mM] |
| --- | --- | --- | --- | --- |
| O=C(O)[C@H](O)COP(=O)(O)O [3-PGA, 3-phosphoglycerate (3-phosphoglyceric acid)] | 0.26 ± 0.061 | – | – | – |
| Nc1ncnc2c1ncn2[C@@H]1O[C@H](COP(=O)(O)OP(=O)(O)OP(=O)(O)O)[C@@H](O)[C@H]1O [ATP, adenosine 5'-triphosphate] | – | 320 ± 21 | 2500 ± 430 | 0.54 ± 0.057 |
